Laboratory results taken from patent publication US20190374533A1, “COMPOUNDS AND METHODS FOR INHIBITING NHE-MEDIATED ANTIPORT IN THE TREATMENT OF DISORDERS ASSOCIATED WITH FLUID RETENTION OR SALT OVERLOAD AND GASTROINTESTINAL TRACT DISORDERS” (Ardelyx, Inc., priority 2008, published 2019).

Tests used:
[1] = Determination of compound Cmax and AUC; format: in vivo; details: rat; Sprague-Dawley rats, oral gavage, serum 0.5-4 h; actual oral dose (mg/kg) given
In short: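 Sprague-Dawley rats dosed orally by gavage at 2.5 mg/kg; serum sampled at 0.5, 1, 2 and 4 h. Acetonitrile protein precipitation, then LC/MS/MS quantitation against a standard curve.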

[2] = Parallel artificial membrane permeability assay (PAMPA); details: pH 7.4
rat NHE-3 = target: T1, rat NHE-3 (Rattus norvegicus, UniProt P26433); test: Cell-based assay of NHE-3 activity (Pharmacological Test Example 1); details: OK cells expressing rat NHE-3; 0-30 uM test compound, 5 uM EIPA
T1 construct: expressed in transfected cells; host or cells: Opossum kidney (OK) cells (ATCC), electroporated
In short: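 Na+-dependent H+ exchange tracked with the pH-sensitive dye BCECF in opossum kidney cells transiently expressing rat NHE-3. Intracellular acidification by NH4Cl prepulse, then 10 min in ammonium- and Na+-free HEPES, pH 7.4, room temperature. Initial rates averaged over 3-6 replicates give pIC50.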

fecal water content = test: Pharmacodynamic model: effect of test compounds on fecal water content; format: in vivo, rat; details: female Sprague Dawley rats, 3 mg/kg oral, feces collected 16 hrs; for % Fecal water: mean of 6
Method: Normal female Sprague Dawlev rats (Charles-River laboratories international, Hollister, Calif.), 7-8 weeks old with body weight 175-200 g were acclimated for at least 3 days before proceeding to experiments. The animals were provided food (Harlan Teklad 2018c) and water ad lib, through the experiment. Animals were randomly grouped with 6 rats per group.
The experiments were initiated by orally dosing test compounds at 3 mg/kg in volume of 10 ml/kg. Rats from control group were gavaged with the same volume of vehicle (water). After dosing, rats were placed in metabolic cages for 16 hrs (overnight). Food and water consumption were monitored. After sixteen hours, feces and urine were collected. The percent of fecal water was measured by weighing fecal samples before and after drying.
Representative data of % fecal water content are shown in Table 12 (data are expressed as means, with 6 animals per data point). The differences between control and treated groups were evaluated by one way ANOVA with Dunnett post tests. Results are significant if p<0.05.

T1 sequence (P26433 29-831): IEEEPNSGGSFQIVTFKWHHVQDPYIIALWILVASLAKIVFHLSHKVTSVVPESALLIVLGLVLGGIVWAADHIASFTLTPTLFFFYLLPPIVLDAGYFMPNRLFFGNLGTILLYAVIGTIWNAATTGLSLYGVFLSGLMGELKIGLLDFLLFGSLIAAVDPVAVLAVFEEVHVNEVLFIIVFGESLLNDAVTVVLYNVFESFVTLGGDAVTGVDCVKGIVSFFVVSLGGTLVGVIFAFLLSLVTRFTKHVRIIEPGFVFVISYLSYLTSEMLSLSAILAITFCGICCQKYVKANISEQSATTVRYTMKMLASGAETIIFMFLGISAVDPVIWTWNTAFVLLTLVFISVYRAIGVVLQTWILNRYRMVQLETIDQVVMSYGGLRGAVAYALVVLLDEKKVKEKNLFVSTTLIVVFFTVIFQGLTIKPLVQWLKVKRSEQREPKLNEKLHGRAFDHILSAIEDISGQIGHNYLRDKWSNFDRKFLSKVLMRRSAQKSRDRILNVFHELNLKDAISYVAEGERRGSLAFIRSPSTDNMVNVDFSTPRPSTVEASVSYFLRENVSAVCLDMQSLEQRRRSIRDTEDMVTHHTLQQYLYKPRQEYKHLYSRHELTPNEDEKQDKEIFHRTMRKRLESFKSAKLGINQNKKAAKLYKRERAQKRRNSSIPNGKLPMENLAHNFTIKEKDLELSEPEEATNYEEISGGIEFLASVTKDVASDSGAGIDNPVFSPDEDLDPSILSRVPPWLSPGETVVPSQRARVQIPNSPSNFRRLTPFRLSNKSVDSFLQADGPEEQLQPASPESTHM

SMILES	Papp A→B at 3 h, 20 uM [2]	rat NHE-3 Average pIC50 (rat NHE-3)	also measured
CN1Cc2c(Cl)cc(Cl)cc2C(c2ccc(NS(=O)(=O)NCCP(=O)([O-])[O-])cc2)C1.[Na+].[Na+] (stereo not drawn) [Example 30, 2-(N-(4-(6,8-dichloro-2-methyl-1,2,3,4-tetrahydroisoquinolin-4-yl)phenyl)sulfamoylamino)ethylphosphonic acid]	0.56 ×10⁻⁶ cm/s	5 to 6	–
C/C(=C\c1cc(F)c(Oc2ccc(S(=O)(=O)NCCOCCOCCOCCNC(=O)CCCCCCC(=O)NCCOCCOCCOCCNS(=O)(=O)c3ccc(Oc4c(F)cc(/C=C(\C)C(=O)N=C(N)N)cc4F)cc3)cc2)c(F)c1)C(=O)N=C(N)N [Example 47, N,N′-(13,20 dioxo-3,6,9, 24, 27, 30-hexaoxa-12, 21-diazadotriacontane-1,32-diyl)bis[(E)-N-(diaminomethylene)-3-(3,5-difluoro-4-(4-sulfamoylphenoxy)phenyl)-2-methylacrylamide]]	< 0.01 ×10⁻⁶ cm/s	>7	–
N=C(N)N1CCN(c2cccc(-c3nc(N=C(N)N)nc4ccc(Cl)cc34)c2)CC1 [Example 60, 4-(3-(6-chloro-2-(diaminomethyleneamino)quinazolin-4-yl)phenyl)piperazine-1-carboximidamide]	0.99 ×10⁻⁶ cm/s	6 to 7	–
NC(N)=Nc1nc(-c2ccc(N3CCN(CC(=O)O)CC3)cc2)c2cc(Cl)ccc2n1 [Example 61, 2-(4-(4-(6-chloro-2-(diaminomethyleneamino)quinazolin-4-yl)phenyl)piperazin-1-yl)acetic acid]	0.1 ×10⁻⁶ cm/s	–	–
NC(N)=Nc1nc(-c2cccc(N3CCN(CCO)CC3)c2)c2cc(Cl)ccc2n1 [Example 68, 2-(6-chloro-4-(3-(4-(2-hydroxyethyl)piperazin-1-yl)phenyl)quinazolin-2-yl)guanidine]	0.35 ×10⁻⁶ cm/s	6 to 7	–
NC(N)=Nc1nc(-c2ccc(N3CCN(CCO)CC3)cc2)c2cc(Cl)ccc2n1 [Example 69, 2-(6-chloro-4-(4-(4-(2-hydroxyethyl)piperazin-1-yl)phenyl)quinazolin-2-yl)guanidine]	0.3 ×10⁻⁶ cm/s	6 to 7	–
C/C(=C\c1cc(F)c(Oc2ccc(S(=O)(=O)NCCCS(=O)(=O)O)cc2)c(F)c1)C(=O)N=C(N)N [Example 71, (E)-3-(4-(4-(3-(diaminomethyleneamino)-2-methyl-3-oxoprop-1-enyl)-2,6-difluorophenoxy)phenylsulfonamido)propane-1-sulfonic acid]	0.45 ×10⁻⁶ cm/s	–	–
CN1Cc2c(Cl)cc(Cl)cc2C(c2ccc(S(=O)(=O)Nc3ccc(P(=O)(O)O)cc3)cc2)C1 (stereo not drawn) [Example 76, 4-(4-(6,8-dichloro-2-methyl-1,2,3,4-tetrahydroisoquinolin-4-yl)phenylsulfonamido)phenylphosphonic acid]	0.2 ×10⁻⁶ cm/s	–	–
CN1Cc2c(Cl)cc(Cl)cc2C(c2ccc(S(=O)(=O)NCCOCCOCCNC(=O)NCCCCNC(=O)NCCOCCOCCNS(=O)(=O)c3ccc(C4CN(C)Cc5c(Cl)cc(Cl)cc54)cc3)cc2)C1 (stereo not drawn) [Example 238, N,N′-(10,17-dioxo-3,6,21,24-tetraoxa-9,11,16,18-tetraazahexacosane-1,26-diyl)bis(4-(6,8-dichloro-2-methyl-1,2,3,4-tetrahydroisoquinolin-4-yl)benzenesulfonamide)]	–	–	% Fecal water (% of control) (fecal water content): 121% of control; % Fecal water (fecal water content): 60%
CN1Cc2c(Cl)cc(Cl)cc2C(c2ccc(S(=O)(=O)NCCOCCOCCNC(=O)Nc3ccc(NC(=O)NCCOCCOCCNS(=O)(=O)c4ccc(C5CN(C)Cc6c(Cl)cc(Cl)cc65)cc4)cc3)cc2)C1 (stereo not drawn) [Example 239, N,N′-(2,2′-(2,2′-(2,2′-(1,4-phenylenebis(azanediyl))bis(oxomethylene)bis(azanediyl)bis(ethane-2,1-diyl))bis(oxy)bis(ethane-2,1-diyl))bis(oxy)bis(ethane-2,1-diyl))bis(4-(6,8-dichloro-2-methyl-1,2,3,4-tetrahydroisoquinolin-4-yl)benzenesulfonamide)]	–	–	% Fecal water (% of control) (fecal water content): 114% of control; % Fecal water (fecal water content): 58%

Continued, in another order:

Papp A→B at 3 h, 20 uM [2]	rat NHE-3 Average pIC50 (rat NHE-3)	SMILES	also measured
0.53 ×10⁻⁶ cm/s	–	CN1Cc2c(Cl)cc(Cl)cc2C(c2cccc(S(=O)(=O)NCCP(=O)(O)O)c2)C1 (stereo not drawn) [Example 1, 2-(3-(6,8-dichloro-2-methyl-1,2,3,4-tetrahydroisoquinolin-4-yl)phenylsulfonamido)ethylphosphonic acid]	AUC [1]: 53 ng·h/mL; Cmax [1]: 21 ng/mL
0.61 ×10⁻⁶ cm/s	5 to 6	CN1Cc2c(Cl)cc(Cl)cc2C(c2cccc(NS(=O)(=O)NCCP(=O)(O)O)c2)C1 (stereo not drawn) [Example 31, 2-(N-(3-(6,8-dichloro-2-methyl-1,2,3,4-tetrahydroisoquinolin-4-yl)phenyl)sulfamoylamino)ethylphosphonic acid]	–
1.61 ×10⁻⁶ cm/s	5 to 6	C/C(=C\c1cc(F)c(Oc2ccc(S(=O)(=O)NCc3ccc(CP(=O)(O)O)cc3)cc2)c(F)c1)C(=O)N=C(N)N [Example 52, (E)-4-((4-(4-(3-(diaminomethyleneamino)-2-methyl-3-oxoprop-1-enyl)-2,6-difluorophenoxy)phenylsulfonamido)methyl)benzylphosphonic acid]	–
1.3 ×10⁻⁶ cm/s	5 to 6	C/C(=C\c1cc(F)c(Oc2ccc(S(=O)(=O)NCCCP(=O)(O)O)cc2)c(F)c1)C(=O)N=C(N)N [Example 54, (E)-3-(4-(4-(3-(diaminomethyleneamino)-2-methyl-3-oxoprop-1-enyl)-2,6-difluorophenoxy)phenylsulfonamido)propylphosphonic acid]	–
0.43 ×10⁻⁶ cm/s	5 to 6	NC(N)=Nc1nc(-c2cccc(N3CCN(C(=O)[C@H](O)[C@@H](O)[C@H](O)[C@H](O)CO)CC3)c2)c2cc(Cl)ccc2n1 [Example 63, 2-(6-chloro-4-(3-(4-((2R,3S,4R,5R)-2,3,4,5,6-pentahydroxyhexanoyl)piperazin-1-yl)phenyl)quinazolin-2-yl)guanidine]	–
0.4 ×10⁻⁶ cm/s	–	NC(N)=Nc1nc(-c2cccc(N3CCN(CCCC(=O)O)CC3)c2)c2cc(Cl)ccc2n1 [Example 70, 4-(4-(3-(6-chloro-2-(diaminomethyleneamino)quinazolin-4-yl)phenyl)piperazin-1-yl)butanoic acid]	–
0.2 ×10⁻⁶ cm/s	–	CN1Cc2c(Cl)cc(Cl)cc2C(c2ccc(S(=O)(=O)N(CC(=O)O)CP(=O)(O)O)cc2)C1 (stereo not drawn) [Example 72, 2-(4-(6,8-dichloro-2-methyl-1,2,3,4-tetrahydroisoquinolin-4-yl)-N-(phosphonomethyl)phenylsulfonamido)acetic acid]	–
0.27 ×10⁻⁶ cm/s	–	NC(N)=Nc1nc(-c2ccc(N3CCN(CCCC(=O)O)CC3)cc2)c2cc(Cl)ccc2n1 [Example 73, 4-(4-(4-(6-chloro-2-(diaminomethyleneamino)quinazolin-4-yl)phenyl)piperazin-1-yl)butanoic acid]	–
0.45 ×10⁻⁶ cm/s	–	CCNC(=O)NS(=O)(=O)c1ccc(Oc2c(F)cc(/C=C(\C)C(=O)N=C(N)N)cc2F)cc1 [Example 74]	–
0.4 ×10⁻⁶ cm/s	–	C/C(=C\c1cc(F)c(Oc2ccc(S(=O)(=O)NC(=O)NCCN(C)C)cc2)c(F)c1)C(=O)N=C(N)N [Example 75, (E)-N-(diaminomethylene)-3-(4 (4-(N-(2-(dimethylamino)ethylcarbamoyl)sulfamoyl)phenoxy)-3,5-difluorophenyl)-2-methylacrylamide]	–
